Laboratory results as given in patent US20120059021A1, “COMPOSITIONS AND METHODS FOR TREATING CANCER AND METHODS FOR PREDICTING A RESPONSE TO SUCH TREATMENTS” (UNIVERSITY OF WASHINGTON, priority 2008, published 2012).

How the values were obtained:
[1] = test system: BAD and Bim (BCL2L11); assay: Immunoblot of BH3-only proteins BAD and Bim in A375 cells; format: cell-based, human
[2] = test system: SKMEL5; assay: Flow cytometry for active (cleaved) caspase-3, SKMEL5; format: cell-based, human; details: 2 uM PLX4720, 24 hours, in % (unit assumed)
Procedure: Flow cytometry for Active Caspase-3. Cells were seeded in a 6-well dish at a density to achieve 90-100% confluence at harvest. 24 hours after seeding, cells were treated with the indicated conditions for the indicated amount of time. At the time of collection, supernatants were collected and pooled with trypsinized cells. Cells were fixed with 4% paraformaldehyde and permeabilized according to vendor's protocol for Cleaved Caspase-3 (Asp175) Antibody (AlexaFluor 488 Conjugate) (catalog #9669) (Cell Signaling, Beverly Mass.). The antibody was used at a final dilution of 1:100. Flow was performed on a BD FACSCanto H, and data analysed with FlowJo 8.8.6 (Tree Star) software. Experiments were performed with biological triplicates and data are representative of at least three independent experiments.
For experiments involving siRNAs, cells were reverse transfected with 20 nM siRNA in 6-well dishes in triplicate with RNAiMax according to manufacturer's protocol. 48 hours following transfection, cells were treated with the indicated conditions for 24 hours and then harvested for analysis. Cells were harvested, stained, and analyzed as described above.

[3] = test system: A375 melanoma cells; assay: Isobologram analysis of cell viability (CellTiter-Glo); format: cell-based, human
Procedure: Isobologram Analysis of Cell Viability. A375 melanoma cells were seeded in 96-well plates at a concentration of 8,000 cells/well in 100 μl of growth media. 24 hours after plating, cells were treated with all combinations of 2-fold dilutions of WNT3A CM ranging from 20% to 0% and 2-fold dilutions of PLX4720 ranging from 5 μM-0 μM for 48 hours. 10 uL of CellTiter-Glo (Promega Madison, Wis.) was added to each well and total luminescence was measured on an Envision multilabel plate reader (Perkin Elmer Waltham, Mass.). Each condition within an experiment was assayed in triplicate wells and three independent experiments were performed.
Dose-effect analyses, including combination indices, dose reduction indices and median-effect analysis for FIGS. 9A-9C and FIGS. 11A-11C were performed using the method of Chou and Talay (55) via the CalcuSyn software suite (Biosoft, Cambridge UK), version 2.1.

[4] = test system: ERK1/2 phosphorylation; assay: ERK1/2 phosphorylation in human epidermal melanocytes; format: cell-based; details: HEMs
Source text: Cell Lines. The human melanoma cell lines A375, A2058 and Me1624 were obtained from Cassian Yee (Fred Hutchinson Cancer Research Institute; Seattle, Wash.). The human melanoma cell lines COLO-829, SKMEL28, SKMEL5 were purchased from ATCC (Manassas, Va.). Human Epidermal Melanocytes, adult, lightly pigmented donor, (HEMa-LP) (C0245C) were purchased from Invitrogen (Carlsbad, Calif.). Stable BAR cell lines were generated as previously described (23). BAR luciferase cell lines were also infected with a lentivirus carrying Renilla luciferase driven by a constitutive EFlalpha promoter.
Cell Culture. The human melanoma lines A375, A2058 were cultured in DMEM supplemented with 5% FBS and 1% antibiotic. The human melanoma lines SK-MEL-5 and SK-MEL-28 were grown in EMEM supplemented with 10% FBS and 1% antibiotic. The human melanoma lines COLO-829 and MEL-624 were grown in RPMI supplemented with 10% FBS and 1% antibiotic HEMa-LP cells were cultured in medium 254 supplemented with 1% HMGS and 1% antibiotic (Invitrogen Carlsbad, Calif.). Synthetic siRNAs were transfected into cultured cells at a final concentration of 20 nM using RNAiMAX (Invitrogen; Grand Island, N.Y.).

[5] = test system: GSK3β; assay: Immunoblot for activating auto-phosphorylation of GSK3β in A375 cells; format: cell-based, human
[6] = test system: A375 cells; assay: TUNEL assay; format: cell-based, human
Procedure: TUNEL. Glass coverslips were coated with poly-L-lysine in a 24-well dish, rinsed with PBS, and dried. Cells were seeded at a density to achieve 90-100% at harvest. 24 hours after seeding, cells were treated with the indicated conditions and incubated for 24 hours. TUNEL staining was performed according to vendor's protocol (cat#12 156 792 910) (Roche Indianapolis, Ind.). Briefly, media was gently aspirated and cells were fixed in 4% paraformaldehyde for 1 hour at room temperature. Cells were gently rinsed twice with PBS and permeabilized with 0.1% Triton X-100 in 0.1% sodium citrate for 2 minutes on ice. Cells were rinsed twice with PBS, and 40 uL of TUNEL reaction mixture was added directly on top of the slide and incubated for 1 hour at 37° C. in a humidified incubator. Slips were rinsed 3 times and mounted on superfrost plus glass slides (cat#48311-703 VWR West Chester, Pa.) with Prolong Gold anti-fade mounting media containing DAPI (cat# P36931 Invitrogen; Grand Island, N.Y.). Images were obtained on a Nikon TiE inverted widefield high-resolution microscope (Nikon Melville, N.Y.).

[7] = test system: human epidermal melanocytes (HEM); assay: qPCR of endogenous Wnt target gene AXIN2, human epidermal melanocytes (HEM); format: cell-based; details: WNT3A CM, 2 μM PLX4720, 24 hours
Source text: (§1) RNA purification and qRT-PCR analysis. RNA was purified using the RNeasy kit following the manufacturer's protocol (Qiagen; Maryland, Md.). cDNA was synthesized using RevertAid™ M-MuLV Reverse Transcriptase (Fermentas; Ontario, CAN). Light Cycler FastStart DNA Master SYBR Green1 (Roche; Mannheim, Germany) was used for real-time PCR as previously described (53). Quantitative PCR results presented in the manuscript are averages of a minimum of three biologic replicates.

[8] = test system: human A375 melanoma cells; assay: Resazurin-based assay for cell viability
[9] = test system: MEL624; assay: qPCR of endogenous Wnt target gene AXIN2, MEL624; format: cell-based, human; details: WNT3A CM, 2 μM PLX4720, 24 hours
Source text: as §1

[10] = test system: β-catenin; assay: Cytosolic and nuclear β-catenin fractionation; format: cell-based, human; details: A375, 24 hours
Procedure: Cytosolic and Nuclear β-catenin Fractionation. Cells were plated in 100 mm dishes. 24 hours following plating, cells were treated with the indicated conditions for 24 hours. Cells were gently rinsed with PBS and harvested by scraping in 500 uL of hypotonic lysis buffer (50 mM HEPES pH 8.0, 1 mM EDTA, 1 mM DTT) containing protease and phosphatase inhibitors. Cells were swelled on ice for 30 minutes and then passed through a 27 gauge needle ten times and checked for complete lysis with a microscope. Lysates were centrifuged at 10,000×g for 20 minutes and supernatant was collected as the cytosolic fraction. Pelleted membranes were washed 5 times with hypotonic lysis buffer and then solubilized with solubilization buffer (50 mM Tris pH 8.0, 150 mM NaCl, 0.1% SDS, 0.5% sodium deoxycholate, 1% Triton X-100) containing protease and phosphatase inhibitors. After a 30 minute incubation on ice, lysates were centrifuged at 16,000×g for 20 minutes. The protein concentration of the cleared supernatant was determined by BCA analysis and an equal amount of protein and volume was then incubated with pre-washed Con A sepharose beads overnight at 4 degree C. Supernatant was collected as the nuclear fraction.

[11] = test system: β-catenin; assay: Immunoblot for β-catenin phosphorylation at Ser33/Ser37/Thr41 in A375 cells; format: cell-based, human
[12] = test system: Wnt/β-catenin signaling; assay: β-catenin activated reporter (BAR) luciferase assay in A375 melanoma cells
Source text: By way of non-limiting example, Wnt/β-catenin signaling can be measured using the BAR reporter described in detail elsewhere herein. Briefly, the BAR (β-catenin activated reporter) is a lentiviral plasmid which provides for expression of luciferase in response to Wnt/β-catenin signaling. Output can be measured with an automated luminescence plate reader.
Detailed information on the β-catenin activated reporter (BAR) has been previously described (23). Briefly, the β-catenin activated reporter (pBAR) is a lentiviral plasmid that contains 12 TCF/LEF binding sites (5′-[sequence]-3′) each separated by distinct 5 base-pair linkers upstream of a minimal promoter and the firefly luciferase open reading frame. The reporter also contains a separate PGK promoter that constitutively drives the expression of a puromycin resistance gene for mammalian cell selection. […] PLX4720 was purchased from Symansis (Australia cat# SY-PLX4720). CHIR99021 was purchased from Axon MedChem (Gronigen, Netherlands catalog #Axon1386). Z-VAD-FMK was purchased from R&D systems (Minneapolis, Minn. cat# FMKSP01).
Low throughput BAR reporter assays. Cells were plated in 96-well plates.

CCCS(=O)(=O)Nc1ccc(F)c(C(=O)c2c[nH]c3ncc(Cl)cc23)c1F [PLX4720, N-[3-[(5-Chloro-1H-pyrrolo[2,3-b]pyridin-3-yl)carbonyl]-2,4-difluorophenyl]-1-propanesulfonamide]
phosphorylation of BimEL ([1]; A375, 2 μM PLX4720, 24 hours): decreased phosphorylation of the largest Bim isoform, BimEL
phosphorylation of Ser75 on BAD ([1]; A375, 24 hours): decreased Ser75 phosphorylation
BimL and BimS levels ([1]; A375, combination of WNT3A and PLX4720, 24 hours): marked increase in BimL and BimS
cleaved caspase-3-positive cells ([2]; AXIN1/2 siRNA, L CM): 11.88 ± 0.18
cleaved caspase-3-positive cells ([2]; AXIN1/2 siRNA, W3A CM): 13.13 ± 2.7
cleaved caspase-3-positive cells ([2]; Control siRNA, L CM): 3.39 ± 0.22
cleaved caspase-3-positive cells ([2]; Control siRNA, W3A CM): 4.28 ± 1.2
drug reduction indices ([3]; combination of WNT3A CM and PLX4720, at 50% growth inhibition): 8.1
combination indices (inhibition of cell growth) ([3]; combination of WNT3A and PLX4720, 48 hours): less than 1
ERK1/2 phosphorylation [4]: no effect
activating auto-phosphorylation of GSK3B [5]: lost
TUNEL staining ([6]; A375, agents individually): minimal TUNEL-positivity
TUNEL staining ([6]; WNT3A and 2 μM PLX4720, 24 hours): presence of apoptotic cell death
AXIN2 transcript levels [7]: did not exhibit any increase in AXIN2 transcript levels
cell viability / proliferation (resazurin) [8]: further decreases cell viability
SYNERGISTIC WNT ACTIVATION WITH PLX4720? [9]: YES
steady-state levels of cytosolic or nuclear β-catenin [10]: did not result in increased steady-state levels of cytosolic or nuclear β-catenin
phosphorylation of β-catenin at GSK3β sites (Ser33/Ser37/Thr41) [11]: decreased phosphorylation of β-catenin
activation of BAR ([12]; A375, PLX4720 on its own): does not lead to any measurable activation of BAR on its own
Wnt/β-catenin signaling (BAR activity) ([12]; A375, in the presence of WNT3A): enhanced Wnt/β-catenin signaling in a dose-dependent manner
Combination indices (BAR activity) ([12]; WNT3A and PLX4720, fixed ratio doses, particularly at higher levels of BAR activity): less than 1
